20 molecules from patent US8889704B2 (Array BioPharma Inc., priority 2011, dated 2014) can be followed below.

Each structure is given as a SMILES string. Counter-ions that a name gives are not always drawn.

Common to all, as to format: biochemical
In one test the target is recombinant rat PIM-3 (Rattus norvegicus, UniProt O70444). As to the kind of experiment: PIM-3 Assay (as Example A). The settings on record: averaged IC50; 30 μM ATP, 3.75 μM PIM2tide, 0.5 nM PIM-3. The procedure, abridged:
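Recombinant rat PIM-3 (0.5 nM) with 3.75 μM PIM2tide and 30 μM [γ-33P]ATP in MOPS pH 7.4 buffer, 60 min at 22 °C; labelled peptide captured on phosphocellulose filters and counted by scintillation. 10-point curve (top dose 10 μM, 2% DMSO); IC50 from 4-parameter fit of percent of control.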

A further test deals with PIM-1 (Homo sapiens, UniProt P11309). Put plainly: Enzyme PIM-1 Assay ([33P]ATP incorporation into PIM2tide, filter plate). The settings on record: averaged IC50; 35 μM ATP, 7.5 μM PIM2tide, 0.25 nM PIM-1, 60 min at 22° C. The procedure, abridged: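 Radiometric assay: 0.25 nM PIM-1 phosphorylates 7.5 μM PIM2tide with 35 μM [γ-33P]ATP in 20 mM MOPS pH 7.4, 10 mM MgCl2, 1 mM DTT, 0.005% Tween-20, 60 min at 22 °C. Product captured on P81 filters, scintillation counted; 10-point 3-fold curve from 10 μM top, 2% DMSO, IC50 by 4-parameter logistic fit of POC.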
Chain of PIM-1 (P11309 whole entry, species assumed): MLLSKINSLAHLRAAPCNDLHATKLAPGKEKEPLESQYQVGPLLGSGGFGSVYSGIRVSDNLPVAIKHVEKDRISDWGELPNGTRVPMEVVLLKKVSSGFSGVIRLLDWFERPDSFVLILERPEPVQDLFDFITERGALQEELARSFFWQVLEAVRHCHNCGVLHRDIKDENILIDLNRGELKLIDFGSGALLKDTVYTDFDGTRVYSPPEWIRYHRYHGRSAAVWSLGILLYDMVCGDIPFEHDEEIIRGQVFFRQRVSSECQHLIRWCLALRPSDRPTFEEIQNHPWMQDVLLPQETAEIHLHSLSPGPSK

For test [1], the target named is T1, GST-tagged recombinant full-length human Pim-2 (Homo sapiens, UniProt Q9P1W9).
T1 construct: GST-tagged recombinant full-length human Pim-2; GST
T1 sequence (Q9P1W9 whole entry): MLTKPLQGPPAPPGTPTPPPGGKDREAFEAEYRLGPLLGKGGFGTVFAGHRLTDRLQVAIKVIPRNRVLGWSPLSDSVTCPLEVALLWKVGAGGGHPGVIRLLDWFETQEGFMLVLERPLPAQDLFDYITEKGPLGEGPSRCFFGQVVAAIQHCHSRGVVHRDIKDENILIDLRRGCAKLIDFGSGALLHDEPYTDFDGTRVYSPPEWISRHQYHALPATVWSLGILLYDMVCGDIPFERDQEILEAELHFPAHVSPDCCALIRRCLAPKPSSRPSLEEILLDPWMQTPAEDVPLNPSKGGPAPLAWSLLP
As to the kind of experiment: PIM-2 Assay (as Example A). As to conditions: averaged IC50; 4 μM ATP, 1.0 μM PIM2tide, 1.5 nM Pim-2. The procedure, abridged: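 Radiometric filter-binding assay: GST-tagged full-length human Pim-2 (1.5 nM) phosphorylates 1.0 μM PIM2tide with 4 μM [γ-33P]ATP for 60 min at 22 °C in pH 7.4 MOPS buffer, 2% DMSO. 10-point 3-fold dilutions from 10 μM top dose; IC50 from 4-parameter fit of percent of control.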

As usually defined, the IC50 is the point on the concentration scale where inhibition reaches its midpoint. In the case of `N[C@H]1CCN([C@H](c2ccc3nnc(-c4ccc5cc(F)c(OC(F)F)cc5n4)n3c2)C(F)(F)F)C1` [Example 215, (S)-1-((R)-1-(3-(7-(difluoromethoxy)-6-fluoroquinolin-2-yl)-[1,2,4]triazolo[4,3-a]pyridin-6-yl)-2,2,2-trifluoroethyl)pyrrolidin-3-amine dihydrochloride], the IC50 at recombinant rat PIM-3 is 3.1 nM; against PIM-1, 0.47 nM; in test [1], above 1000 nM.
On to `CC(C)Oc1cc(F)cc2ccc(-c3nnc4ccc([C@H](N5CC[C@](C)(N)C5)C(F)(F)F)cn34)nc12` [Example 216, (S)-3-methyl-1-((S)-2,2,2-trifluoro-1-(3-(6-fluoro-8-isopropoxyquinolin-2-yl)-[1,2,4]triazolo[4,3-a]pyridin-6-yl)ethyl)pyrrolidin-3-amine dihydrochloride], for which the IC50 on recombinant rat PIM-3 was found to be 0.8 nM; at PIM-1, 0.38 nM; in test [1], 56 nM.
The like results for `COc1cccc2ccc(-c3nnc4ccc([C@H](N5CC[C@](C)(N)C5)C(F)(F)F)cn34)nc12` [Example 217, (S)-3-methyl-1-((S)-2,2,2-trifluoro-1-(3-(8-methoxyquinolin-2-yl)-[1,2,4]triazolo[4,3-a]pyridin-6-yl)ethyl)pyrrolidin-3-amine dihydrochloride] were, in that order, 0.4 nM, 0.32 nM and 40 nM.
For the molecule `COc1cc(F)cc2ccc(-c3nnc4ccc([C@H](N5CC[C@](C)(N)C5)C(F)(F)F)cn34)nc12` [Example 218, (S)-3-methyl-1-((S)-2,2,2-trifluoro-1-(3-(6-fluoro-8-methoxyquinolin-2-yl)-[1,2,4]triazolo[4,3-a]pyridin-6-yl)ethyl)pyrrolidin-3-amine], the IC50 at recombinant rat PIM-3 turned out to be 0.4 nM; at PIM-1, 0.26 nM; in test [1], 33 nM.
For the molecule `N[C@H]1CCN([C@H](c2ccc3nnc(-c4ccc5cccc(OCCO)c5n4)n3c2)C(F)(F)F)C1` [Example 219, 2-(2-(6-((R)-1-((S)-3-aminopyrrolidin-1-yl)-2,2,2-trifluoroethyl)-[1,2,4]triazolo[4,3-a]pyridin-3-yl)quinolin-8-yloxy)ethanol dihydrochloride], the IC50 on recombinant rat PIM-3 was 1.2 nM; against PIM-1, 0.26 nM; in test [1], 253 nM.
On to `CCOc1cc2nc(-c3nnc4ccc([C@H](N5CC[C@](C)(N)C5)C(F)(F)F)cn34)ccc2cc1F` [Example 220, (S)-1-((S)-1-(3-(7-ethoxy-6-fluoroquinolin-2-yl)-[1,2,4]triazolo[4,3-a]pyridin-6-yl)-2,2,2-trifluoroethyl)-3-methylpyrrolidin-3-amine], for which the figures for the IC50 (on recombinant rat PIM-3; at PIM-1; in test [1]) were 0.4 nM, 0.28 nM and 72 nM, respectively.
For `COC[C@@H](C)Oc1cc(F)cc2ccc(-c3nnc4ccc([C@H](N5CC[C@](C)(N)C5)C(F)(F)F)cn34)nc12` [Example 221, (S)-3-methyl-1-((S)-2,2,2-trifluoro-1-(3-(6-fluoro-8-((R)-1-methoxypropan-2-yloxy)quinolin-2-yl)-[1,2,4]triazolo[4,3-a]pyridin-6-yl)ethyl)pyrrolidin-3-amine dihydrochloride], the figures for the IC50 (at recombinant rat PIM-3; on PIM-1; in test [1]) were 1 nM, 0.41 nM and 128 nM, respectively.
`Cn1cc(-c2ccc3ccc(-c4nnc5ccc([C@H](N6CC[C@](C)(N)C6)C(F)(F)F)cn45)nc3c2)cn1` [Example 222, (S)-3-methyl-1-((S)-2,2,2-trifluoro-1-(3-(7-(1-methyl-1H-pyrazol-4-yl)quinolin-2-yl)-[1,2,4]triazolo[4,3-a]pyridin-6-yl)ethyl)pyrrolidin-3-amine dihydrochloride]: the IC50 on recombinant rat PIM-3 is 0.2 nM; against PIM-1, 0.22 nM; in test [1], 77 nM.
`C[C@]1(N)CCN([C@@H](c2ccc3nnc(-c4ccc5ccc(C6CC6)cc5n4)n3c2)C(F)(F)F)C1` [Example 223, (S)-1-((S)-1-(3-(7-cyclopropylquinolin-2-yl)-[1,2,4]triazolo[4,3-a]pyridin-6-yl)-2,2,2-trifluoroethyl)-3-methylpyrrolidin-3-amine dihydrochloride]: the IC50 at recombinant rat PIM-3 is 0.3 nM; on PIM-1 it was 0.29 nM; in test [1] it was 62 nM.
Turning to `CC(C)(CCO)c1cccc2ccc(-c3nnc4ccc([C@@H](N5CC[C@H](N)C5)C(F)(F)F)cn34)nc12` [Example 224, 3-(2-(6-((R)-1-((S)-3-aminopyrrolidin-1-yl)-2,2,2-trifluoroethyl)-[1,2,4]triazolo[4,3-a]pyridin-3-yl)quinolin-8-yl)-3-methylbutan-1-ol dihydrochloride], the results for the IC50 (at recombinant rat PIM-3; on PIM-1; in test [1]) were 0.7 nM, 0.36 nM and 94 nM, respectively.
Regarding `CC(C)(O)c1cccc2ccc(-c3nnc4ccc([C@@H](N5CC[C@H](N)C5)C(F)(F)F)cn34)nc12` [Example 225, 2-(2-(6-((R)-1-((S)-3-aminopyrrolidin-1-yl)-2,2,2-trifluoroethyl)-[1,2,4]triazolo[4,3-a]pyridin-3-yl)quinolin-8-yl)propan-2-ol], the values for the IC50 (on recombinant rat PIM-3; on PIM-1; in test [1]) were 1.1 nM, 0.27 nM and 139 nM, respectively.
`N[C@H]1CCN([C@H](c2ccc3nnc(-c4ccc5cc(F)c(OCC(F)(F)F)cc5n4)n3c2)C(F)(F)F)C1` [Example 226, (S)-1-((R)-2,2,2-trifluoro-1-(3-(6-fluoro-7-(2,2,2-trifluoroethoxy)quinolin-2-yl)-[1,2,4]triazolo[4,3-a]pyridin-6-yl)ethyl)pyrrolidin-3-amine dihydrochloride]: the results for the IC50 (on recombinant rat PIM-3; at PIM-1; in test [1]) were 0.5 nM, 0.27 nM and 235 nM, respectively.
In the case of `COCCOc1cccc2ccc(-c3nnc4ccc([C@@H](N5CC[C@H](N)C5)C(F)(F)F)cn34)nc12` [Example 227, (S)-1-((R)-2,2,2-trifluoro-1-(3-(8-(2-methoxyethoxy)quinolin-2-yl)-[1,2,4]triazolo[4,3-a]pyridin-6-yl)ethyl)pyrrolidin-3-amine dihydrochloride], the IC50 was determined as 2.5 nM at recombinant rat PIM-3, 0.48 nM on PIM-1 and 453 nM in test [1].
As for `N[C@H]1CCN([C@H](c2ccc3nnc(-c4ccc5cc(F)cc(OC(F)F)c5n4)n3c2)C(F)(F)F)C1` [Example 228, (S)-1-((R)-1-(3-(8-(difluoromethoxy)-6-fluoroquinolin-2-yl)-[1,2,4]triazolo[4,3-a]pyridin-6-yl)-2,2,2-trifluoroethyl)pyrrolidin-3-amine dihydrochloride], the results for the IC50 (at recombinant rat PIM-3; against PIM-1; in test [1]) were 3.8 nM, 0.79 nM and 916 nM, respectively.
`N[C@H]1CCN([C@H](c2ccc3nnc(-c4ccc5cc(F)cc(OCCCO)c5n4)n3c2)C(F)(F)F)C1` [Example 229, 3-(2-(6-((R)-1-((S)-3-aminopyrrolidin-1-yl)-2,2,2-trifluoroethyl)-[1,2,4]triazolo[4,3-a]pyridin-3-yl)-6-fluoroquinolin-8-yloxy)propan-1-ol dihydrochloride]: the IC50 at recombinant rat PIM-3 is 0.3 nM; at PIM-1, 0.13 nM; in test [1], 55 nM.
As to `C[C@H](CO)Oc1cccc2ccc(-c3nnc4ccc([C@@H](N5CC[C@H](NCC6CC6)C5)C(F)(F)F)cn34)nc12` [Example 230, dihydrochloride], the IC50 at recombinant rat PIM-3 was 3.2 nM; on PIM-1 it was 0.64 nM; in test [1] it was 211 nM.
For the molecule `CC(C)N[C@H]1CCN([C@H](c2ccc3nnc(-c4ccc5cccc(O[C@H](C)CO)c5n4)n3c2)C(F)(F)F)C1` [Example 231, dihydrochloride], the results for the IC50 (on recombinant rat PIM-3; at PIM-1; in test [1]) were 3.5 nM, 0.88 nM and 429 nM, respectively.
In the same order, the values of `N[C@H]1CCN([C@H](c2ccc3nnc(-c4ccc5cc(F)cc(OCC(F)(F)F)c5n4)n3c2)C(F)(F)F)C1` [Example 232, (S)-1-((R)-2,2,2-trifluoro-1-(3-(6-fluoro-8-(2,2,2-trifluoroethoxy)quinolin-2-yl)-[1,2,4]triazolo[4,3-a]pyridin-6-yl)ethyl)pyrrolidin-3-amine dihydrochloride] are 0.8 nM, 0.2 nM and 206 nM.
In the same order, the values of `COCCCOc1cc(F)cc2ccc(-c3nnc4ccc([C@@H](N5CC[C@H](N)C5)C(F)(F)F)cn34)nc12` [Example 233, (S)-1-((R)-2,2,2-trifluoro-1-(3-(6-fluoro-8-(3-methoxypropoxy)quinolin-2-yl)-[1,2,4]triazolo[4,3-a]pyridin-6-yl)ethyl)pyrrolidin-3-amine dihydrochloride] are 1.1 nM, 0.28 nM and 260 nM.
For the molecule `CN(C)C(=O)Cc1cccc2ccc(-c3nnc4ccc([C@@H](N5CC[C@H](N)C5)C(F)(F)F)cn34)nc12` [Example 234, 2-(2-(6-((R)-1-((S)-3-aminopyrrolidin-1-yl)-2,2,2-trifluoroethyl)-[1,2,4]triazolo[4,3-a]pyridin-3-yl)quinolin-8-yl)-N,N-dimethylacetamide dihydrochloride], the IC50 at recombinant rat PIM-3 is 33 nM; on PIM-1, 8.22 nM; in test [1], above 1000 nM.
